Entries after “also recorded” stand apart in the source; their conditions may differ.
Legend:
[1] = tested on: subtype F DIS of HIV-1 genomic RNA; test: In situ DMS footprinting in infected CEMx174 cells and virions, subtype F DIS; settings: infected cells and viral particles; 3 mM aminoglycoside in culture
[2] = tested on: subtype A DIS in RNA1-615 (HIV-1 MAL genomic RNA); test: DMS footprinting of aminoglycosides on RNA1-615 (subtype A DIS); type: binding; settings: for protection of A280 against methylation by DMS: 10 μM and above; for protection of A280 against methylation by DMS / protection against methylation by DMS: RNA1-615; for protection against methylation by DMS: even at 100 μM
Method: (§1) Materials and Methods: Chemical footprinting experiments were performed on a 23-mer subtype A SL1 RNA or on RNA1-615, which corresponds to nucleotides 1-615 of HIV-1 Mal genomic RNA (Ennifar et al., J. Biol. Chem. 2003 278:2723-2730). Chemical modification was carried out either with dimethyl sulfate (DMS, Fluka) to test the accessibility of N1-A and N3-C positions or with lead acetate (Merck), which selectivity cleaves the subtype A DIS loop between the first and second nucleotides.
(§2) The binding of aminoglycosides to DIS can be detected through several biochemical methods: it induces protection toward chemical modification with dimethyl sulfate (DMS) or toward a specific cleavage in the subtype A promoted by lead (II); it also induces slower migration on non-denaturated gel.
Residues A272 and A280 of RNA1-615 are unpaired in the kissing-loop complex and are methylated by DMS at their N1 position. As previously observed (Baudin et al., J. Mol. Biol. 1993, 229:382-397; Paillart et al., J. Mol. Biol. 1997, 270:36-49), A280 is more reactive than A272, even though the latter nucleotide is flipped out of the helix, while the former is stacked inside the structure. […] On the other hand, A272, which is flipped out of the kissing-loop complex was not protected against methylation by DMS (FIG. 22B). […] Thus, even though these compounds bound to short DIS RNA in the same way as neomycin and lividomycin (FIGS. 19A and 19B), they were unable to efficiently recognize this target in the context of a large RNA.

[3] = tested on: DIS kissing-loop complex of RNA1-615 (HIV-1 MAL, subtype A DIS); test: Competition experiment: exchange of RNA 1-615 homodimer with RNA 1-311 (heterodimer formation); type: biochemical; settings: for heterodimer formation after addition of RNA1-311: 100 μM aminoglycoside, fivefold excess RNA1-311, up to one hour; for heterodimer formation after addition of RNA1-311 / heterodimer formed compared with dimer 12: 37° C.; for heterodimer formed compared with dimer 12: FIG. 14; for exchange of preformed RNA homodimers (1-615/1-615) with RNA (1-311): FIG. 13
Method: Materials and Methods: In a typical experiment, unlabeled 1-615 RNA (400 nM), together with a corresponding internally labeled RNA (3-5 nCi), were heated for 2 min at 90° C., chilled for 2 min on ice, and dimerization was initiated by addition of 2 μl of 5-fold concentrated dimerization buffer (final concentration: 50 mM sodium cacodylate, pH 7.5, 300 mM KCl, 5 mM MgCl2). After incubation at 37° C. for 20 min, 100 μM of aminoglycosides were added to the RNA mixture and incubation was continue for 15 min. Then, RNA 1-311 was added as a competitor and sample were collected at 2, 5, 10, 15, 20, 30, and 60 min and analyzed on 0.8% agarose gels (45 mM Tris borate pH 8.3, 01 mM MgCl2) at 4° C. Gels were fixed in TCA 10%, dried, and analyzed using a BAS 2000 Bio-Imager (Fuji).
The kissing-loop complex of radiolabeled RNA1-615 was formed, and then aminoglycosides at a 100 AM concentration were added. Next, a fivefold excess of unlabeled RNA1-311, encompassing nucleotides 1 to 311 of HIV-1 MAL genomic RNA, that also contains the subtype A DIS and is thus able to form a heterodimer with RNA1-615, was added (FIG. 24). Due to the dynamic nature of the kissing-loop complex, in the absence of aminoglycoside, greater than half of the radioactive material was shifted in the heterodimer within two minutes, and the RNA1-615 homodimer almost completely disappeared upon prolonged incubation. […] This observation is in keeping with the crystal structures showing that 4,5-disubstituted DOS form a bridge between the two RNA molecules (FIG. 18).
The aminoglycosides have also been investigated in solution. Their ability to stabilize the loop-loop interaction was investigated through competition experiments. Preformed RNA homodimers (1-615/1-615) were placed in the presence of the same but shorter RNA (1-311), and the kinetic of their exchanges was followed in the presence, or not, of aminoglycosides (FIG. 13).

[4] = tested on: subtype B DIS of HIV-1 genomic RNA; test: In situ DMS footprinting in infected CEMx174 cells and virions, subtype B DIS; settings: infected cells and viral particles; 3 mM aminoglycoside in culture
[5] = tested on: subtype A DIS kissing-loop complex (23-mer RNA); test: Lead(II)-induced cleavage of the DIS loop, 23-mer RNA (footprinting); type: binding, HIV-1; settings: for inhibition of lead-induced cleavage of the subtype A DIS loop: 25 μM aminoglycoside; for inhibition of lead-induced cleavage of the DIS loop, relative efficiency: FIG. 21
Method: as §1, §2
At this stage, it was unclear if this class of compound is able to bind to the DIS kissing-loop complex. To compare binding of 4,5-disubstituted and 4,6-disubstituted DOS, a 23-mer RNA corresponding to the subtype A DIS, which was allowed to dimerize in conditions permitting crystallization of the kissing-loop complex, was used. As previously shown, lead (II) induced a specific cleavage in the subtype A DIS loop that is sensitive to the binding of aminoglycoside (FIG. 21).

[6] = tested on: subtype F kissing-loop complex; test: DMS footprinting, subtype F DIS in the context of RNA1-615; type: binding, HIV-1
[7] = tested on: subtype A DIS of HIV-1 genomic RNA; test: In situ DMS footprinting in infected CEMx174 cells and virions, subtype A DIS; settings: infected cells and viral particles; 3 mM aminoglycoside in culture
[8] = tested on: subtype B kissing-loop complex; test: DMS footprinting, subtype B DIS; type: binding, HIV-1; settings: NL4.3 sequence
Method: as §1
The dimeric molecules also protect from DMS modification as neomycin (FIG. 10).
In addition, none of the 4,5-disubstituted DOS was bound to the subtype B kissing-loop complex.

[9] = tested on: DIS kissing-loop complex in RNA1-615 (HIV-1 MAL genomic RNA, subtype A DIS); test: Lead-induced cleavage of RNA1-615, primer extension assay; type: binding
Method: as §1
To evaluate the capacity of 4,5-disubstituted DOS to bind to the DIS kissing-loop complex in a larger RNA presenting numerous unspecific binding sites, RNA1-615, which corresponds to nucleotides 1 to 615 of the HIV-1 MAL genomic RNA, was used.

[10] = tested on: ribosomal A site; settings: Wong et al., Chem. Biol. 1998; cited from earlier work
[11] = subtype A, loop adenine A280 and guanine G274

With `NCC1O[C@H](O[C@@H]2C(N)C[C@@H](N)C(O)[C@H]2O[C@@H]2O[C@H](CO)C(O[C@H]3O[C@H](CN)[C@@H](O)C(O)C3N)[C@@H]2O)C(N)[C@@H](O)[C@@H]1O` (some centres unmarked) [neomycin] the “reduction of alkylation (DMS) of A280 of the subtype F DIS” value [1] was “more than two-fold”, the “protection of A280 against methylation by DMS” value [2] was “strongly protected A280 against methylation” and the “protection from DMS modification” value ([2]; Mal sequence) was “protect from DMS modification the bases implicated in the interaction”. For the same molecule, the “protection from DMS modification” value [2, 11] was “protects from DMS modification the loop adenine A280 and the guanine G274”, the “heterodimer formation after addition of RNA1-311” value (“heterodimer formation” for short) [3] was “only minimal amounts of heterodimer were formed” and the “heterodimer formed compared with dimer 12” value [3] was “twice less heterodimer”. The “exchange of preformed RNA homodimers (1-615/1-615) with RNA (1-311)” value (“exchange of preformed RNA homodimers” below) [3] was “almost totally abolish the exchange”, the “protection of A280 against DMS methylation of subtype B DIS” value (from here on “protection of A280 … of subtype B DIS”) [4] was “did not protect A280” and the “inhibition of lead-induced cleavage of the subtype A DIS loop” value [5] was “completely inhibited”. For the same molecule, the “inhibition of lead-induced cleavage of the DIS loop, relative efficiency” value (from here on “inhibition … relative efficiency”) [5] was “equally inhibited”, the “binding to the subtype F kissing-loop complex by DMS footprinting” value (“binding” for short) [6] was “efficiently bound” and the “reduction of alkylation (DMS) of A280 of the subtype A DIS” value (“reduction … of the subtype A DIS” for short) [7] was “more than two-fold”. The “interaction seen by DMS modification” value [8] was “no significant interaction” and the “inhibition of lead-induced cleavage between A272 and G273” value ([9]; 50 μM) was “almost completely inhibited”.
In the case of `NC[C@H]1O[C@H](O[C@H]2[C@H](O)[C@@H](O[C@H]3O[C@H](CO)[C@@H](O)[C@H](N)[C@H]3O)[C@H](N)C[C@@H]2N)[C@H](N)C[C@@H]1O` [tobramycin], the “protection from DMS modification” value [2, 11] is reported as “no protection”.
With `NC[C@@H]1O[C@H](O[C@H]2[C@@H](O)[C@H](O[C@@H]3[C@@H](O)[C@H](N)C[C@H](N)[C@H]3O[C@H]3O[C@H](CO)[C@@H](O)C[C@H]3N)O[C@@H]2CO)[C@H](N)[C@@H](O)[C@@H]1O[C@H]1O[C@H](CO)[C@@H](O)[C@H](O)[C@@H]1O` [lividomycin] the “reduction of alkylation (DMS) of A280 of the subtype F DIS” value [1] was “more than two-fold”, the “protection of A280 against methylation by DMS” value [2] was “strongly protected A280 against methylation” and the “heterodimer formation” value [3] was “only minimal amounts of heterodimer were formed”. For the same molecule, the “heterodimer formed compared with dimer 12” value [3] was “twice less heterodimer”, the “exchange of preformed RNA homodimers” value [3] was “almost totally abolish the exchange” and the “protection of A280 … of subtype B DIS” value [4] was “did not protect A280”. For the same molecule, the “inhibition of lead-induced cleavage of the subtype A DIS loop” value [5] was “completely inhibited”, the “binding” value [6] was “efficiently bound” and the “reduction … of the subtype A DIS” value [7] was “more than two-fold”. For the same molecule, the “inhibition of lead-induced cleavage between A272 and G273” value ([9]; 50 μM) was “almost completely inhibited”.
With `NC[C@@H]1O[C@H](O[C@H]2[C@@H](O)[C@H](O[C@@H]3[C@@H](O)[C@H](N)C[C@H](N)[C@H]3O[C@H]3O[C@H](CO)[C@@H](O)[C@H](O)[C@H]3N)O[C@@H]2CO)[C@H](N)[C@@H](O)[C@@H]1O` [paromomycin] the “protection from DMS modification” value ([2]; Mal sequence) was “protect from DMS modification the bases implicated in the interaction”, the “heterodimer formation” value [3] was “only minimal amounts of heterodimer were formed” and the “heterodimer formed compared with dimer 12” value [3] was “twice less heterodimer”. The “exchange of preformed RNA homodimers” value [3] was “almost totally abolish the exchange”, the “protection of A280 … of subtype B DIS” value [4] was “did not protect A280” and the “reduction … of the subtype A DIS” value [7] was “more than two-fold”. For the same molecule, the “interaction seen by DMS modification” value [8] was “no significant interaction”.
For `NC[C@H]1O[C@H](O[C@H]2[C@H](O)[C@@H](O)[C@H](N)C[C@@H]2N)[C@H](N)[C@@H](O)[C@@H]1O` [neamine], the “protection against methylation by DMS” value [2] is given as “no protection against methylation”, the “inhibition … relative efficiency” value [5] is given as “less efficient; also recorded: inhibited cleavage at lower concentration than the tricyclic ribostamycin” and the “affinity for the ribosomal A site” value [10] is given as “higher affinity than ribostamycin”. The “binding” value [6] was “did not bind” and the “inhibition of lead-induced cleavage between A272 and G273” value ([9]; even at 100 μM) was “no inhibition”.
In the case of `NC[C@H]1O[C@H](O[C@H]2[C@H](O[C@@H]3O[C@H](CO)[C@@H](O)[C@H]3O)[C@@H](O)[C@H](N)C[C@@H]2N)[C@H](N)[C@@H](O)[C@@H]1O` [ribostamycin], the “protection against methylation by DMS” value [2] is reported as “no protection against methylation”, the “inhibition … relative efficiency” value [5] is reported as “less efficient” and the “binding” value [6] is reported as “did not bind”. For the same molecule, the “inhibition of lead-induced cleavage between A272 and G273” value ([9]; even at 100 μM) was “no inhibition”.
